PubChem BioAssay AID248 (DTP/NCI, 2004)
Toxic doses and inconclusive results are not listed. Cut-off read from the data, not from the text of the source: active = T/C of 150% or more; inactive = T/C below 125%.

System: L1210 leukemia ip in BDF1 mice, survival T/C
Assay: NCI In Vivo Anticancer Drug Screen. Data for tumor model L1210 Leukemia (intraperitoneal) in B6D2F1 (BDF1) mice
Settings: endpoint: mean survival time, higher = longer survival
How it was run: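 In this screen, tumor-bearing mice given compound are compared to those given vehicle, and their survival values are reported as a treated-to-control quotient.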

[1] = dose: 100.0 mg/kg/injection, schedule: Q01DX001 (ip), vehicle: saline
[2] = dose: 200.0 mg/kg/injection, schedule: Q01DX001 (ip), vehicle: saline
[3] = dose: 400.0 mg/kg/injection, schedule: Q01DX001 (ip), vehicle: saline
[4] = dose: 100.0 mg/kg/injection, schedule: Q01DX009 (ip), vehicle: saline with Tween-80
[5] = dose: 200.0 mg/kg/injection, schedule: Q01DX009 (ip), vehicle: saline with Tween-80
[6] = dose: 400.0 mg/kg/injection, schedule: Q01DX009 (ip), vehicle: saline with Tween-80
[7] = dose: 100.0 mg/kg/injection, schedule: Q04DX003 (ip), vehicle: Klucel (hydroxypropylcellulose) (HPC)
[8] = dose: 200.0 mg/kg/injection, schedule: Q04DX003 (ip), vehicle: Klucel (hydroxypropylcellulose) (HPC)
[9] = dose: 400.0 mg/kg/injection, schedule: Q04DX003 (ip), vehicle: Klucel (hydroxypropylcellulose) (HPC)
[10] = dose: 100.0 mg/kg/injection, schedule: Q01DX001 (ip), vehicle: Klucel (hydroxypropylcellulose) (HPC)
[11] = dose: 200.0 mg/kg/injection, schedule: Q01DX001 (ip), vehicle: Klucel (hydroxypropylcellulose) (HPC)

Measured: T/C

COc1ccc(Cl)cc1-c1c(C(=O)O)cccc1[N+](=O)[O-]
inactive: dose: 100.0 mg/kg/injection, schedule: Q01DX001 (ip), vehicle: gum acacia 108 % of control | dose: 100.0 mg/kg/injection, schedule: Q04DX003 (ip), vehicle: gum acacia 102 % of control | dose: 200.0 mg/kg/injection, schedule: Q01DX001 (ip), vehicle: gum acacia 102 % of control | dose: 200.0 mg/kg/injection, schedule: Q04DX003 (ip), vehicle: gum acacia 102 % of control | dose: 400.0 mg/kg/injection, schedule: Q01DX001 (ip), vehicle: gum acacia 102 % of control | dose: 400.0 mg/kg/injection, schedule: Q04DX003 (ip), vehicle: gum acacia 90 % of control

Cc1ccc(S(=O)(=O)OC2C3OC(=S)OCC3OC3OC(C)(C)OC32)cc1 (centres undefined)
inactive: dose: 25.0 mg/kg/injection, schedule: Q04DX002 (ip), vehicle: saline 104 % of control | dose: 50.0 mg/kg/injection, schedule: Q04DX002 (ip), vehicle: saline 107 % of control | dose: 100.0 mg/kg/injection, schedule: Q04DX002 (ip), vehicle: saline 107 % of control

CC(C)(CC(=O)c1ccccc1)CC(=O)c1ccccc1
inactive: [1] 109 % of control | [2] 116 % of control | [3] 98 % of control

CCOC(=O)c1cnc(SC)nc1Oc1ccccc1
inactive: [4] 101 % of control | [5] 106 % of control | [6] 98 % of control

CCCCCCC(O)CCCCCCCCCCC(=O)O (centres undefined)
inactive: [4] 106 % of control | [5] 93 % of control | [6] 88 % of control

COC1=C(N)C(=O)C(OC)=C(N)C1=O
inactive: [1] 94 % of control | [2] 97 % of control

O=[N+]([O-])c1ccc(C[n+]2ccccc2)cc1
inactive: dose: 50.0 mg/kg/injection, schedule: Q01DX009 (ip), vehicle: saline 89 % of control

F[Si](c1cccc2ccccc12)(c1cccc2ccccc12)c1cccc2ccccc12
inactive: [4] 93 % of control | dose: 100.0 mg/kg/injection, schedule: Q04DX003 (ip), vehicle: saline with Tween-80 92 % of control | [5] 87 % of control | dose: 200.0 mg/kg/injection, schedule: Q04DX003 (ip), vehicle: saline with Tween-80 90 % of control | [6] 103 % of control | dose: 400.0 mg/kg/injection, schedule: Q04DX003 (ip), vehicle: saline with Tween-80 97 % of control

O=C(O)C1CC/C=C\CCC1 (centres undefined)
inactive: dose: 100.0 mg/kg/injection, schedule: Q01DX009 (sc), vehicle: olive oil, sesame oil, peanut oil 99 % of control | dose: 100.0 mg/kg/injection, schedule: Q04DX003 (sc), vehicle: olive oil, sesame oil, peanut oil 109 % of control | dose: 200.0 mg/kg/injection, schedule: Q01DX009 (sc), vehicle: olive oil, sesame oil, peanut oil 89 % of control | dose: 200.0 mg/kg/injection, schedule: Q04DX003 (sc), vehicle: olive oil, sesame oil, peanut oil 106 % of control | dose: 400.0 mg/kg/injection, schedule: Q01DX009 (sc), vehicle: olive oil, sesame oil, peanut oil 88 % of control | dose: 400.0 mg/kg/injection, schedule: Q04DX003 (sc), vehicle: olive oil, sesame oil, peanut oil 97 % of control

Cc1ccc(S(=O)(=O)N(C)c2ccc3cc(Br)ccc3c2)cc1
inactive: dose: 100.0 mg/kg/injection, schedule: Q01DX005 (ip), vehicle: Klucel (hydroxypropylcellulose) (HPC) 94 % of control | [7] 95 % of control | dose: 200.0 mg/kg/injection, schedule: Q01DX005 (ip), vehicle: Klucel (hydroxypropylcellulose) (HPC) 100 % of control | [8] 97 % of control | dose: 400.0 mg/kg/injection, schedule: Q01DX005 (ip), vehicle: Klucel (hydroxypropylcellulose) (HPC) 91 % of control | [9] 97 % of control

NNC(=O)CNc1ccc(F)c(C(F)(F)F)c1
inactive: dose: 100.0 mg/kg/injection, schedule: Q04DX002 (ip), vehicle: Klucel (hydroxypropylcellulose) (HPC) 107 % of control | dose: 200.0 mg/kg/injection, schedule: Q04DX002 (ip), vehicle: Klucel (hydroxypropylcellulose) (HPC) 118 % of control

O=C(CC(NC(=O)OCc1ccccc1)C(=O)OCc1ccccc1)OCc1ccccc1 (centres undefined)
inactive: dose: 200.0 mg/kg/injection, schedule: Q01DX009 (ip), vehicle: Klucel (hydroxypropylcellulose) (HPC) 88 % of control | dose: 400.0 mg/kg/injection, schedule: Q01DX009 (ip), vehicle: Klucel (hydroxypropylcellulose) (HPC) 89 % of control

CC(C(O)c1cc(=O)n(C)c2ccccc12)[N+](=O)[O-] (centres undefined)
inactive: dose: 100.0 mg/kg/injection, schedule: Q01DX001 (ip), vehicle: other 95 % of control | dose: 200.0 mg/kg/injection, schedule: Q01DX001 (ip), vehicle: other 110 % of control | dose: 400.0 mg/kg/injection, schedule: Q01DX001 (ip), vehicle: other 101 % of control

CCC(=O)/C=C/C1=C(C)CCCC1(C)C
inactive: [4] 96 % of control | dose: 100.0 mg/kg/injection, schedule: Q04DX003 (ip), vehicle: saline 95 % of control | [5] 93 % of control | dose: 200.0 mg/kg/injection, schedule: Q04DX003 (ip), vehicle: saline 97 % of control | dose: 400.0 mg/kg/injection, schedule: Q04DX003 (ip), vehicle: saline 97 % of control

C=C1C(=O)OC2/C=C(/C)C(OC(C)=O)CC(O)/C(C)=C\C(OC(=O)/C(C)=C\C)C12 (centres undefined)
inactive: dose: 40.0 mg/kg/injection, schedule: Q01DX009 (ip), vehicle: carboxymethylcellulose (CMC) 101 % of control | dose: 60.0 mg/kg/injection, schedule: Q01DX009 (ip), vehicle: carboxymethylcellulose (CMC) 104 % of control | dose: 80.0 mg/kg/injection, schedule: Q01DX009 (ip), vehicle: carboxymethylcellulose (CMC) 104 % of control | dose: 100.0 mg/kg/injection, schedule: Q01DX009 (ip), vehicle: carboxymethylcellulose (CMC) 98 % of control

O=S1(=O)c2ccccc2C(=NO)c2ccccc21
inactive: dose: 75.0 mg/kg/injection, schedule: Q01DX009 (ip), vehicle: other 98 % of control | [1] 97 % of control | dose: 150.0 mg/kg/injection, schedule: Q01DX009 (ip), vehicle: other 98 % of control | [2] 94 % of control | dose: 300.0 mg/kg/injection, schedule: Q01DX009 (ip), vehicle: other 93 % of control | [3] 97 % of control

O=[N+]([O-])c1ccc(Oc2cccc(C(F)(F)F)c2)c(Cl)c1
inactive: [10] 94 % of control | [11] 97 % of control | dose: 400.0 mg/kg/injection, schedule: Q01DX001 (ip), vehicle: Klucel (hydroxypropylcellulose) (HPC) 95 % of control

CC(C)(C)C1COP(=O)(OCc2ccccc2)OC1 (centres undefined)
inactive: dose: 100.0 mg/kg/injection, schedule: Q04DX003 (ip), vehicle: other 92 % of control | dose: 200.0 mg/kg/injection, schedule: Q04DX003 (ip), vehicle: other 91 % of control

O/N=C/c1ccccc1
inactive: dose: 66.0 mg/kg/injection, schedule: Q01DX009 (ip), vehicle: saline with Tween-80 87 % of control | [4] 96 % of control | dose: 150.0 mg/kg/injection, schedule: Q01DX009 (ip), vehicle: saline with Tween-80 95 % of control

CCC(OO)(C1=NC(C)(C)CO1)c1ccncc1Br (centres undefined)
inactive: [10] 98 % of control | [7] 97 % of control | [11] 101 % of control | [8] 101 % of control | [9] 102 % of control
